Reference: patent US12478601B2, “Dietary product devoid of at least two non essential amino acids” (CANCER RESEARCH TECHNOLOGY LIMITED, priority 2016, dated 2025)

Tested on: MDA-MB-231 cells
Assay: Cysteine starvation of MDA-MB-231 cells after AMD1 inhibitor pre-treatment
Format: cell-based
Conditions: 20 uM for 16 h before medium lacking cysteine
Experimental: FIG. 40. […] MDA-MB-231 cells were initially seeded in complete (DMEM) medium in 24-well plates. After 24 h, cells were treated with AMD1 inhibitor Sardomozide (20 uM) for 16 h or left untreated (Ctr). Cells were then washed with PBS and given medium lacking cysteine but containing all 19 other amino acids. Images (panel a) were captured using a light microscope, and cell counts (panel b) were performed using a CASY TT cell counter. Data are average of three wells. Error bars=STDEV.
Cells (4×10^4-1×10^5) were seeded in complete RPMI or DMEM medium in 24-well plates and allowed to adhere overnight. Cells were then washed with PBS and received assay medium supplemented with the stated amino acids/metabolites/drugs. Assay medium was formulated based on RPMI-1640 medium but lacking amino acids, which were added individually depending on the assay. Assay medium was also supplemented with additional vitamin B6 (20 uM), a co-factor for cysteine synthesis. Cells were counted (using Casy TT cell counter, Innovatis, Roche Applied Science) at the stated time-points, using a “time=0” plate to calculate relative cell number from time of medium change.

N=C(N)N/N=C1\CCc2c(C(=N)N)cccc21 [Sardomozide]
protection from cell death in cysteine starvation: protects cells from acute sensitivity (i.e. cell death) to cysteine starvation
